Results published in ChEMBL document CHEMBL1147794, “Synthesis and evaluation of two 18F-labeled imidazo[1,2-a]pyridine analogues as potential agents for imaging beta-amyloid in Alzheimer's disease” (Bioorg Med Chem Lett, 2006).
pKi: −log10 of the molar value. Activity calls are given as the source filed them. The calls are words filed in the database; no cut-off is given here.

Experiments:
[1] = target: Amyloid-beta precursor protein (Homo sapiens, UniProt P05067); experiment: Displacement of [125I]IMPY from beta amyloid in human AD cortical tissue
[2] = Lipophilicity, Log P of the compound; type: physicochemical; conditions: octanol/water
Rhesus monkey [3] = experiment: Penetration into iv dosed rhesus monkey blood-brain barrier after 9 mins; type: functional, organism-based; conditions: Macaca mulatta, tested as the 18F-labelled form
Rhesus monkey [4] = experiment: Uptake in iv dosed rhesus monkey skull; type: functional, organism-based; conditions: Macaca mulatta; tested as the 18F-labelled form

Sequence of Amyloid-beta precursor protein (P05067 whole entry): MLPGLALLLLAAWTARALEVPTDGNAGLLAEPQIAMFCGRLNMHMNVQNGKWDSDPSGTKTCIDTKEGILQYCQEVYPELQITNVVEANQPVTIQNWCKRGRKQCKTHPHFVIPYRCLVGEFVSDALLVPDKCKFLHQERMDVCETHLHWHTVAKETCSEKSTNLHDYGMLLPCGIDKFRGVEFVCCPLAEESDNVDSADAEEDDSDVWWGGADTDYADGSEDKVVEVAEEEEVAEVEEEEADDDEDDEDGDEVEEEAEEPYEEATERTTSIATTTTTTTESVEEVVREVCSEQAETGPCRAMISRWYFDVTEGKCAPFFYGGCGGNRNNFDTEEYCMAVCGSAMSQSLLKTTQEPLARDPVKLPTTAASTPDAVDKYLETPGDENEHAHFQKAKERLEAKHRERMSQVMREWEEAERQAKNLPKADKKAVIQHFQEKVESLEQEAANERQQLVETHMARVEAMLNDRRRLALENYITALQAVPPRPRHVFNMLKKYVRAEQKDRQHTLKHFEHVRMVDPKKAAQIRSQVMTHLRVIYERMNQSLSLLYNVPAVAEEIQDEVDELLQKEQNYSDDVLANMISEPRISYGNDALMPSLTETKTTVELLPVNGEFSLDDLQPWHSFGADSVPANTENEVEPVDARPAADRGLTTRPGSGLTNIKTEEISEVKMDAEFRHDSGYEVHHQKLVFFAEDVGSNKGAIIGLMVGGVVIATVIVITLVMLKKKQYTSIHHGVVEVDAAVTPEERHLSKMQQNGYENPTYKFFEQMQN

Question: With `CN(C)c1ccc(-c2cn3cc(CCCF)ccc3n2)cc1` as the compound, how does the pKi [1] read?
Answer: The pKi was 7.32.

Question: What about the logP [2] of the same compound?
Answer: Its logP is 2.84.

Question: And the Activity (Rhesus monkey [3])?
Answer: Its Activity is “Active”.

Question: And the Activity (Rhesus monkey [4])?
Answer: The Activity was “inactive”.

Question: With `CN(C)c1ccc(-c2cn3cc(CCF)ccc3n2)cc1` as the compound, how does the pKi [1] read?
Answer: The pKi was 6.75.

Question: What about the logP [2] of the same compound?
Answer: The logP was 2.42.

Question: Which logP [2] does the source give for `CN(C)c1ccc(-c2cn3cc(I)ccc3n2)cc1` here?
Answer: The logP was 3.58.
